Measured values published in patent publication US20140255476A1, “COMPOSITIONS, DEVICES, AND METHODS FOR TREATING INFECTIONS” (University of Washington through its Center for …, priority 2011, published 2014).

Columns and labels:
[1] = decomposition of calcium hypochlorite under ambient light; format: physicochemical; settings: 200 mg/ml, 37° C., without stabilization in alginate-calcium hydrogel
Description: In one embodiment, the interactions of calcium hypochlorite and alginate control the release of chlorine over time, which allows prolonged and continuous exposure. Without stabilization of calcium hypochlorite in alginate-calcium hydrogel, calcium hypochlorite at a concentration of 200 mg/ml is decomposed under ambient light within 30 min at 37° C. In a composition containing 1% alginate tested at room temperature (without exposing to light), about 40-50% of chlorine was released over 2 hr test period for all calcium hypochlorite concentrations tested (FIG. 2). […] It is understood that the physical structure of the gel can take the form of particles, sheets, or appropriate structure to optimize the surface suitable for release of the active hypohalite form.

onychomycosis = settings: topical formulations; do not penetrate the nail; cited from earlier work
[2] = tested on: XL-1 antibiotic resistant bacteria; settings: 30 and 60 mg/ml, 16 hr and 40 hr
Description: FIGS. 11A-11D are images of agar plates seeded with XL-1 antibiotic resistant bacteria comparing the effectiveness of sodium hypochlorite (11A and 11C) and calcium hypochlorite (11B and 11D) at 16 hr (11A and 11B) and 40 hr (11C and 11D). Sodium hypochlorite (11A and 11C): 0, water; 1 30 mg/ml with alginate; 2, 60 mg/ml with alginate; 3, 60 mg/ml without alginate; 4, 30 mg/ml without alginate. Calcium hypochlorite (11B and 11D): 0, water; 1 25 mg/ml with alginate; 2, 50 mg/ml with alginate; 3, 50 mg/ml without alginate; 4, 25 mg/ml without alginate.

| Compound | effectiveness for onychomycosis (onychomycosis) | further results |
| --- | --- | --- |
| [Ca+2].[O-]Cl.[O-]Cl [calcium hypochlorite] |  | time to decomposition [1]: ≤ 30 min |
| CN(C/C=C/C#CC(C)(C)C)Cc1cccc2ccccc12 [terbinafine] | totally ineffective |  |
| sodium chlorite |  | effectiveness with vs without alginate [2]: not affected by the presence of alginate |
| Clc1ccccc1C(c1ccccc1)(c1ccccc1)n1ccnc1 [clotrimazole] | totally ineffective |  |
